System: diarrhea-predominant IBS subjects
Assay: Study S241.3.006: weekly diary questions on adequate relief
Type: in vivo, human
Procedure: The study was conducted in 129 study centers in the United States. At total of 2080 subjects consented to participate, and 711 subjects were randomized. A total of 692 subjects were analyzed for efficacy and 701 subjects were analyzed for safety. Diagnosis and main criteria for inclusion were IBS subjects satisfying the Rome I criteria (1992); the diarrhea predominant sub-population of the Rome II criteria; and a minimum abdominal pain/discomfort, stool frequency and consistency determined during the run-in period. Subjects were treated with cilansetron 2 mg tablets given orally TID or matching placebo tablets given orally TID for 12 weeks double-blind treatment.
The primary efficacy parameter was the number of months that a subject was a responder for IBS symptoms (abdominal pain, abdominal discomfort, abnormal bowel habits) over the 12-week treatment period. A responder for a month (monthly responder) was defined as a subject who answered the weekly question with “yes” at least twice for that month.
Studies S24 1.3.OO6, S24 1.3.0 1 1, and S24 1.3.009 used the following efficacy measurements: • The subjects answered the following three questions with “yes” or “no” using a phone diary at the end of each week: • a) During the last week, did you experience adequate relief of your IBS symptoms, such as abdominal pain, abdominal discomfort, abnormal bowel habits? • b) During the last week, did you experience adequate relief of your abdominal pain and/or discomfort? • c) During the last week, did you experience adequate relief of your abnormal bowel habits? • The subjects rated the following symptoms using the phone diary at the end of each day: • abdominal pain/discomfort (five-point scale); • stool consistency (seven-point Bristol Stool Scale); • stool frequency (number of bowel movements each day); • urgency (five-point scale); • straining (yes or no); • feeling of incomplete defecation (yes or no); • bloating or feeling of abdominal distension (five-point scale). • In Studies S241 A006 and S241.3.009, subjects completed the IBS-QOL Survey at Baseline (Day 1) and at the end of treatment. In Study S24 1.3.0 1 1, subjects completed the IBS-QOL Survey at Baseline (Day 1), at the end of the three-month treatment period, and at the end of rerandomized treatment.
In all three pivotal efficacy studies, the primary and main secondary efficacy parameters were based on the weekly diary questions on adequate relief and included the following: • 1. Number of months (one month equals four weeks) that a subject was a responder for the weekly diary questions on adequate relief. A responder for a month (monthly responder) was defined as a subject who answered the weekly question with “yes” at least twice for that month. For Studies S241.3.006 and S241.3.011, the primary efficacy parameter was the number of months that a subject was a responder for IBS symptoms during the 12-week treatment period. The two main secondary efficacy parameters were the number of months that a subject was a responder for abdominal pain/discomfort and abnormal bowel habits during the 12-week treatment period. For Study S241.3.009, the number of months that a subject was a responder for the weekly diary questions on adequate relief during Months 1 to 3 (the first 12 weeks) and Months 1 to 6 (24-week) was an additional key secondary efficacy parameter. • 2. Overall responder rate for the weekly diary questions on adequate relief. A responder was defined as a subject who answered the weekly question with “yes” for at least half of the answers available with a minimum of four weeks treatment duration. If a subject had less than four weeks treatment duration, the subject was considered a non-responder. The overall responder rate was the percentage of responders within a treatment group. For Study S241.3.009, the primary efficacy parameter was the overall responder rate for IBS symptoms during the 26-week treatment period. […]

[1] = 2 mg TID, monthly LOCF, ITT N = 344
[2] = 2 mg TID, three-month treatment period, monthly LOCF, ITT N = 344
[3] = 2 mg TID, three-month treatment period, observed case, ITT N = 344
[4] = Baseline BMI: <30 kg/m^2, three-month treatment period, monthly LOCF, ITT, 2 mg TID
[5] = Baseline BMI: ≧30 kg/m^2, three-month treatment period, monthly LOCF, ITT, 2 mg TID
[6] = Baseline severity of IBS: non-severe, three-month treatment period, monthly LOCF, ITT, 2 mg TID
[7] = Baseline severity of IBS: non-severe, three-month treatment period, observed case, ITT, 2 mg TID
[8] = Baseline severity of IBS: severe, three-month treatment period, monthly LOCF, ITT, 2 mg TID
[9] = Baseline severity of IBS: severe, three-month treatment period, observed case, ITT, 2 mg TID

Cc1nccn1C[C@H]1CCc2c(c3cccc4c3n2CCC4)C1=O [Cilansetron, (R)-(−)-4,5,6,8,9,10-hexahydro-10-[(2-methyl-1H-imidazol-1-yl)methyl]-11H-pyrido-[3,2,1-jk]-carbazol-11-one]
Responders for one month, IBS symptoms (2 mg TID, 3 months): 13% | Responders for one month, abdominal pain/discomfort (2 mg TID, 3 months): 12% | Responders for one month, abnormal bowel habits (2 mg TID, 3 months): 12% | Responders for three months, IBS symptoms (2 mg TID, 3 months): 35% | Responders for three months, abdominal pain/discomfort (2 mg TID, 3 months): 40% | Responders for three months, abnormal bowel habits (2 mg TID, 3 months): 38% | Responders for two months, IBS symptoms (2 mg TID, 3 months): 15% | Responders for two months, abdominal pain/discomfort (2 mg TID, 3 months): 14% | Responders for two months, abnormal bowel habits (2 mg TID, 3 months): 15% | Responders for zero months, IBS symptoms (2 mg TID, 3 months): 37% | Responders for zero months, abdominal pain/discomfort (2 mg TID, 3 months): 34% | Responders for zero months, abnormal bowel habits (2 mg TID, 3 months): 36% | Responder rate, adequate relief of IBS symptoms, Each month of Months 1 to 3 [1]: 119 (35) n (%) | Responder rate, adequate relief of IBS symptoms, Month 1 [1]: 176 (51) n (%) | Responder rate, adequate relief of IBS symptoms, Month 2 [1]: 163 (47) n (%) | Responder rate, adequate relief of IBS symptoms, Month 3 [1]: 169 (49) n (%) | Responder rate, adequate relief of abdominal pain/discomfort, Each month of Months 1 to 3 [1]: 139 (40) n (%) | Responder rate, adequate relief of abdominal pain/discomfort, Month 1 [1]: 192 (56) n (%) | Responder rate, adequate relief of abdominal pain/discomfort, Month 2 [1]: 178 (52) n (%) | Responder rate, adequate relief of abdominal pain/discomfort, Month 3 [1]: 183 (53) n (%) | Responder rate, adequate relief of abnormal bowel habits, Each month of Months 1 to 3 [1]: 129 (38) n (%) | Responder rate, adequate relief of abnormal bowel habits, Month 1 [1]: 180 (52) n (%) | Responder rate, adequate relief of abnormal bowel habits, Month 2 [1]: 178 (52) n (%) | Responder rate, adequate relief of abnormal bowel habits, Month 3 [1]: 173 (50) n (%) | Subjects who were responders for One month, adequate relief of IBS symptoms [2]: 45 (13) n (%) | Subjects who were responders for One month, adequate relief of abdominal pain/discomfort [2]: 42 (12) n (%) | Subjects who were responders for One month, adequate relief of abnormal bowel habits [2]: 40 (12) n (%) | Subjects who were responders for Three months, adequate relief of IBS symptoms [2]: 119 (35) n (%) | Subjects who were responders for Three months, adequate relief of abdominal pain/discomfort [2]: 139 (40) n (%) | Subjects who were responders for Three months, adequate relief of abnormal bowel habits [2]: 129 (38) n (%) | Subjects who were responders for Two months, adequate relief of IBS symptoms [2]: 53 (15) n (%) | Subjects who were responders for Two months, adequate relief of abdominal pain/discomfort [2]: 47 (14) n (%) | Subjects who were responders for Two months, adequate relief of abnormal bowel habits [2]: 52 (15) n (%) | Subjects who were responders for Zero months, adequate relief of IBS symptoms [2]: 127 (37) n (%) | Subjects who were responders for Zero months, adequate relief of abdominal pain/discomfort [2]: 116 (34) n (%) | Subjects who were responders for Zero months, adequate relief of abnormal bowel habits [2]: 123 (36) n (%) | Overall responder rate, adequate relief of IBS symptoms [3]: 168 (49) n (%) | Overall responder rate, adequate relief of abdominal pain/discomfort [3]: 179 (52) n (%) | Overall responder rate, adequate relief of abnormal bowel habits [3]: 174 (51) n (%) | Median adequate relief rate, IBS symptoms (3 months): 0.50 | Median adequate relief rate, abdominal pain/discomfort (3 months): 0.58 | Median adequate relief rate, abnormal bowel habits (3 months): 0.50 | Overall responder rate, IBS symptoms (3 months, observed case, ITT): 49% | Overall responder rate, abdominal pain/discomfort (3 months, observed case, ITT): 52% | Overall responder rate, abnormal bowel habits (3 months, observed case, ITT): 51% | Number of months a subject was a responder: One month (Abdominal pain/discomfort) [4]: 26 (11) n (%) | Number of months a subject was a responder: One month (Abnormal bowel habits) [4]: 27 (12) n (%) | Number of months a subject was a responder: One month (IBS symptoms) [4]: 29 (13) n (%) | Number of months a subject was a responder: Three months (Abdominal pain/discomfort) [4]: 96 (42) n (%) | Number of months a subject was a responder: Three months (Abnormal bowel habits) [4]: 83 (36) n (%) | Number of months a subject was a responder: Three months (IBS symptoms) [4]: 80 (35) n (%) | Number of months a subject was a responder: Two months (Abdominal pain/discomfort) [4]: 29 (13) n (%) | Number of months a subject was a responder: Two months (Abnormal bowel habits) [4]: 37 (16) n (%) | Number of months a subject was a responder: Two months (IBS symptoms) [4]: 35 (15) n (%) | Number of months a subject was a responder: Zero months (Abdominal pain/discomfort) [4]: 79 (34) n (%) | Number of months a subject was a responder: Zero months (Abnormal bowel habits) [4]: 83 (36) n (%) | Number of months a subject was a responder: Zero months (IBS symptoms) [4]: 86 (37) n (%) | Number of months a subject was a responder: One month (Abdominal pain/discomfort) [5]: 16 (14) n (%) | Number of months a subject was a responder: One month (Abnormal bowel habits) [5]: 13 (11) n (%) | Number of months a subject was a responder: One month (IBS symptoms) [5]: 16 (14) n (%) | Number of months a subject was a responder: Three months (Abdominal pain/discomfort) [5]: 43 (38) n (%) | Number of months a subject was a responder: Three months (Abnormal bowel habits) [5]: 46 (40) n (%) | Number of months a subject was a responder: Three months (IBS symptoms) [5]: 39 (34) n (%) | Number of months a subject was a responder: Two months (Abdominal pain/discomfort) [5]: 18 (16) n (%) | Number of months a subject was a responder: Two months (Abnormal bowel habits) [5]: 15 (13) n (%) | Number of months a subject was a responder: Two months (IBS symptoms) [5]: 18 (16) n (%) | Number of months a subject was a responder: Zero months (Abdominal pain/discomfort) [5]: 37 (32) n (%) | Number of months a subject was a responder: Zero months (Abnormal bowel habits) [5]: 40 (35) n (%) | Number of months a subject was a responder: Zero months (IBS symptoms) [5]: 41 (36) n (%) | Number of months a subject was a responder: One month (Abdominal pain/discomfort) [6]: 9 (6) n (%) | Number of months a subject was a responder: One month (Abnormal bowel habits) [6]: 16 (11) n (%) | Number of months a subject was a responder: One month (IBS symptoms) [6]: 18 (12) n (%) | Number of months a subject was a responder: Three months (Abdominal pain/discomfort) [6]: 72 (49) n (%) | Number of months a subject was a responder: Three months (Abnormal bowel habits) [6]: 68 (46) n (%) | Number of months a subject was a responder: Three months (IBS symptoms) [6]: 60 (41) n (%) | Number of months a subject was a responder: Two months (Abdominal pain/discomfort) [6]: 25 (17) n (%) | Number of months a subject was a responder: Two months (Abnormal bowel habits) [6]: 22 (15) n (%) | Number of months a subject was a responder: Two months (IBS symptoms) [6]: 24 (16) n (%) | Number of months a subject was a responder: Zero months (Abdominal pain/discomfort) [6]: 42 (28) n (%) | Number of months a subject was a responder: Zero months (Abnormal bowel habits) [6]: 42 (28) n (%) | Number of months a subject was a responder: Zero months (IBS symptoms) [6]: 46 (31) n (%) | Overall responder rate, adequate relief of IBS symptoms [7]: 81 (55) n (%) | Overall responder rate, adequate relief of abdominal pain/discomfort [7]: 89 (60) n (%) | Overall responder rate, adequate relief of abnormal bowel habits [7]: 84 (57) n (%) | Number of months a subject was a responder: One month (Abdominal pain/discomfort) [8]: 33 (17) n (%) | Number of months a subject was a responder: One month (Abnormal bowel habits) [8]: 24 (12) n (%) | Number of months a subject was a responder: One month (IBS symptoms) [8]: 27 (14) n (%) | Number of months a subject was a responder: Three months (Abdominal pain/discomfort) [8]: 67 (34) n (%) | Number of months a subject was a responder: Three months (Abnormal bowel habits) [8]: 61 (31) n (%) | Number of months a subject was a responder: Three months (IBS symptoms) [8]: 59 (30) n (%) | Number of months a subject was a responder: Two months (Abdominal pain/discomfort) [8]: 22 (11) n (%) | Number of months a subject was a responder: Two months (Abnormal bowel habits) [8]: 30 (15) n (%) | Number of months a subject was a responder: Two months (IBS symptoms) [8]: 29 (15) n (%) | Number of months a subject was a responder: Zero months (Abdominal pain/discomfort) [8]: 74 (38) n (%) | Number of months a subject was a responder: Zero months (Abnormal bowel habits) [8]: 81 (41) n (%) | Number of months a subject was a responder: Zero months (IBS symptoms) [8]: 81 (41) n (%) | Overall responder rate, adequate relief of IBS symptoms [9]: 87 (44) n (%) | Overall responder rate, adequate relief of abdominal pain/discomfort [9]: 90 (46) n (%)

Source: patent US20090176817A1, “Method of Treatment of Diarrhea-Predominant Irritable Bowel Syndrome in a Subject” (priority 2005, published 2009)
